{
  "source": "the NIST ThermoML archive (doi:10.1016/j.jct.2012.05.023)",
  "key": {"[1]": {"conditions": "101.3 kPa, Liquid; for speed of sound: Sing-around technique in a fixed-path interferometer; for mass density: Vibrating tube method"}, "[2]": {"assay": "refractive index (Na D-line) (dimensionless)", "conditions": "101.33 kPa, Liquid, Standard Abbe refractometry"}, "[3]": {"assay": "refractive index (Na D-line) (dimensionless); xn = mol fraction of the nth substance listed", "conditions": "101.3 kPa, Liquid, Standard Abbe refractometry, x2 = 0"}, "[4]": {"assay": "xn = mol fraction of the nth substance listed", "conditions": "101.3 kPa, Liquid, x2 = 0; for speed of sound: Sing-around technique in a fixed-path interferometer; for mass density: Vibrating tube method"}},
  "note": "± gives the expanded uncertainty stated by the source.",
  "data": [
    {"smiles": "CCCCCCCCCCCC", "note": "[dodecane]", "values": [
      {"measurement": "speed of sound", "setting": "[1]; 293.15 K", "result": "1297.9 ± 1.2", "unit": "m/s"},
      {"measurement": "mass density", "setting": "[1]; 293.15 K", "result": "748.92 ± 0.24", "unit": "kg/m3"},
      {"measurement": "speed of sound", "setting": "[1]; 303.15 K", "result": "1259.5 ± 1.2", "unit": "m/s"},
      {"measurement": "mass density", "setting": "[1]; 303.15 K", "result": "741.66 ± 0.24", "unit": "kg/m3"},
      {"measurement": "speed of sound", "setting": "[1]; 313.15 K", "result": "1221.6 ± 1.2", "unit": "m/s"},
      {"measurement": "mass density", "setting": "[1]; 313.15 K", "result": "734.38 ± 0.24", "unit": "kg/m3"},
      {"measurement": "speed of sound", "setting": "[1]; 323.15 K", "result": "1184.4 ± 1.2", "unit": "m/s"},
      {"measurement": "mass density", "setting": "[1]; 323.15 K", "result": "727.07 ± 0.24", "unit": "kg/m3"},
      {"measurement": "speed of sound", "setting": "[1]; 333.15 K", "result": "1147.8 ± 1.2", "unit": "m/s"},
      {"measurement": "mass density", "setting": "[1]; 333.15 K", "result": "719.73 ± 0.24", "unit": "kg/m3"},
      {"measurement": "speed of sound", "setting": "[1]; 343.15 K", "result": "1111.8 ± 1.2", "unit": "m/s"},
      {"measurement": "mass density", "setting": "[1]; 343.15 K", "result": "712.34 ± 0.25", "unit": "kg/m3"},
      {"measurement": "refractive index", "setting": "[2]; 293.15 K", "result": "1.42218 ± 0.00037"},
      {"measurement": "refractive index", "setting": "[2]; 303.15 K", "result": "1.41784 ± 0.00037"},
      {"measurement": "refractive index", "setting": "[2]; 313.15 K", "result": "1.41346 ± 0.00037"},
      {"measurement": "refractive index", "setting": "[2]; 323.15 K", "result": "1.40914 ± 0.00037"},
      {"measurement": "refractive index", "setting": "[2]; 333.15 K", "result": "1.40479 ± 0.00037"},
      {"measurement": "refractive index", "setting": "[2]; 343.15 K", "result": "1.40018 ± 0.00037"}
    ]},
    {"smiles": "CCCCCCCCCCCC", "note": "[dodecane] + c1ccc2c(c1)CCCC2", "values": [
      {"measurement": "refractive index", "setting": "[3]; 293.15 K", "result": "1.42218 ± 0.00037"},
      {"measurement": "refractive index", "setting": "[3]; 303.15 K", "result": "1.41784 ± 0.00037"},
      {"measurement": "refractive index", "setting": "[3]; 313.15 K", "result": "1.41346 ± 0.00037"},
      {"measurement": "refractive index", "setting": "[3]; 323.15 K", "result": "1.40914 ± 0.00037"},
      {"measurement": "refractive index", "setting": "[3]; 333.15 K", "result": "1.40479 ± 0.00037"},
      {"measurement": "refractive index", "setting": "[3]; 343.15 K", "result": "1.40018 ± 0.00037"},
      {"measurement": "speed of sound", "setting": "[4]; 293.15 K", "result": "1297.9 ± 1.2", "unit": "m/s"},
      {"measurement": "mass density", "setting": "[4]; 293.15 K", "result": "748.92 ± 0.24", "unit": "kg/m3"},
      {"measurement": "speed of sound", "setting": "[4]; 303.15 K", "result": "1259.5 ± 1.2", "unit": "m/s"},
      {"measurement": "mass density", "setting": "[4]; 303.15 K", "result": "741.66 ± 0.24", "unit": "kg/m3"},
      {"measurement": "speed of sound", "setting": "[4]; 313.15 K", "result": "1221.6 ± 1.2", "unit": "m/s"},
      {"measurement": "mass density", "setting": "[4]; 313.15 K", "result": "734.38 ± 0.24", "unit": "kg/m3"},
      {"measurement": "speed of sound", "setting": "[4]; 323.15 K", "result": "1184.4 ± 1.2", "unit": "m/s"},
      {"measurement": "mass density", "setting": "[4]; 323.15 K", "result": "727.07 ± 0.24", "unit": "kg/m3"},
      {"measurement": "speed of sound", "setting": "[4]; 333.15 K", "result": "1147.8 ± 1.2", "unit": "m/s"},
      {"measurement": "mass density", "setting": "[4]; 333.15 K", "result": "719.73 ± 0.24", "unit": "kg/m3"},
      {"measurement": "speed of sound", "setting": "[4]; 343.15 K", "result": "1111.8 ± 1.2", "unit": "m/s"},
      {"measurement": "mass density", "setting": "[4]; 343.15 K", "result": "712.34 ± 0.25", "unit": "kg/m3"}
    ]},
    {"smiles": "c1ccc2c(c1)CCCC2", "note": "[1,2,3,4-tetrahydronaphthalene]", "values": [
      {"measurement": "speed of sound", "setting": "[1]; 293.15 K", "result": "1489.5 ± 1.3", "unit": "m/s"},
      {"measurement": "mass density", "setting": "[1]; 293.15 K", "result": "969.52 ± 0.23", "unit": "kg/m3"},
      {"measurement": "speed of sound", "setting": "[1]; 303.15 K", "result": "1450.1 ± 1.2", "unit": "m/s"},
      {"measurement": "mass density", "setting": "[1]; 303.15 K", "result": "961.59 ± 0.23", "unit": "kg/m3"},
      {"measurement": "speed of sound", "setting": "[1]; 313.15 K", "result": "1411.5 ± 1.2", "unit": "m/s"},
      {"measurement": "mass density", "setting": "[1]; 313.15 K", "result": "953.66 ± 0.23", "unit": "kg/m3"},
      {"measurement": "speed of sound", "setting": "[1]; 323.15 K", "result": "1373.6 ± 1.2", "unit": "m/s"},
      {"measurement": "mass density", "setting": "[1]; 323.15 K", "result": "945.72 ± 0.23", "unit": "kg/m3"},
      {"measurement": "speed of sound", "setting": "[1]; 333.15 K", "result": "1336.4 ± 1.2", "unit": "m/s"},
      {"measurement": "mass density", "setting": "[1]; 333.15 K", "result": "937.77 ± 0.23", "unit": "kg/m3"},
      {"measurement": "speed of sound", "setting": "[1]; 343.15 K", "result": "1299.8 ± 1.2", "unit": "m/s"},
      {"measurement": "mass density", "setting": "[1]; 343.15 K", "result": "929.8 ± 0.23", "unit": "kg/m3"},
      {"measurement": "refractive index", "setting": "[2]; 293.15 K", "result": "1.54155 ± 0.00037"},
      {"measurement": "refractive index", "setting": "[2]; 303.15 K", "result": "1.53687 ± 0.00037"},
      {"measurement": "refractive index", "setting": "[2]; 313.15 K", "result": "1.53216 ± 0.00037"},
      {"measurement": "refractive index", "setting": "[2]; 323.15 K", "result": "1.52752 ± 0.00037"},
      {"measurement": "refractive index", "setting": "[2]; 333.15 K", "result": "1.52274 ± 0.00037"},
      {"measurement": "refractive index", "setting": "[2]; 343.15 K", "result": "1.51795 ± 0.00037"}
    ]}
  ]
}
